The source of these data is PMC6934184, “Selective DNA-PKcs inhibition extends the therapeutic index of localized radiotherapy and chemotherapy” (The Journal of Clinical Investigation, 2019).

The structures appear in SMILES notation.

For the assay, the target named is T1, KIT D816V (Homo sapiens, UniProt P10721, D816V).
T1 construct: purchased Thermo Fisher Scientific (Life Technologies) SelectScreen
As to the kind of experiment: SelectScreen LanthaScreen. The conditions noted are these: read-out: % displacement. The assay is classed as binding. The method in brief:
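Percent values come from Thermo SelectScreen profiling of NU5455, combining activity and binding assays. CSF1R was run in Z'LYTE format at Km app ATP, and CAMK1 in Adapta format with ATP listed at 10.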
For orientation: TR-FRET usually uses a lanthanide donor and a delayed reading to cut background.

T1 sequence (P10721 26-976 D816V): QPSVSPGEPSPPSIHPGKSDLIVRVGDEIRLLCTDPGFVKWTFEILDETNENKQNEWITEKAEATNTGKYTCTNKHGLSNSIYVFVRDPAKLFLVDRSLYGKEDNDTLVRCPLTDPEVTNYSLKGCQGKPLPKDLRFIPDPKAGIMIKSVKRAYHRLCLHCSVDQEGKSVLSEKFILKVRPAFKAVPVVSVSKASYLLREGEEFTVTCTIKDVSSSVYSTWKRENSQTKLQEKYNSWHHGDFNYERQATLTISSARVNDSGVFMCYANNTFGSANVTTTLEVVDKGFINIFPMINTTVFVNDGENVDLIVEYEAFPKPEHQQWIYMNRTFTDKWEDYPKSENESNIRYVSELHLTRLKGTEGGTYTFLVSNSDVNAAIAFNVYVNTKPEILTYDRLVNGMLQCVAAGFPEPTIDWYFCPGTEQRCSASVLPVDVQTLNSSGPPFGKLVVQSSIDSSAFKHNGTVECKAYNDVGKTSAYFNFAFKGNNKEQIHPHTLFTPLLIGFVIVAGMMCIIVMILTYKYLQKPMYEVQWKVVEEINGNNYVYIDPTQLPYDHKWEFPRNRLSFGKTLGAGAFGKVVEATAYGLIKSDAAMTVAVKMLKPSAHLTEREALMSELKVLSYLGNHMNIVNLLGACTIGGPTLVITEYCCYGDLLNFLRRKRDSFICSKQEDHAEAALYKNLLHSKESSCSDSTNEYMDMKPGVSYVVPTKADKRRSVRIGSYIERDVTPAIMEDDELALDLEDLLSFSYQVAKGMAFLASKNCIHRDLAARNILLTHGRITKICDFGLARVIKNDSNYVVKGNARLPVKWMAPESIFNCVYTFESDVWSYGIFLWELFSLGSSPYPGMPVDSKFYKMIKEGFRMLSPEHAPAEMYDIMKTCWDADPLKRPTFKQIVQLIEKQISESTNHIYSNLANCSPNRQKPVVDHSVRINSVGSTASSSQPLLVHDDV

On to `CN(C(=O)CN1CCOCC1)c1ccc2sc3c(-c4cccc5c(=O)cc(N6CC7CCC(C6)O7)oc45)cccc3c2c1` [NU5455], for which the inhibition at 1 µM came to 0.9%.
